Consider ten compounds from patent publication US20230134760A1, “CAR AND NRF2 DUAL ACTIVATOR AGENTS FOR CYCLOPHOSPHAMIDE-BASED AND DOXORUBICIN-BASED TREATMENTS OF CANCER” (priority 2020, published 2023).

One series relates to hCAR or Nrf2. Description: all curve and EC50 curve of selected compounds (FIG. 22-35). Type of series: cell-based. The settings on record: for Emax: figure legend values. The procedure: Cell lysates were assayed for luciferase activity and normalized against the activity of the Renilla luciferase using a Dual-Luciferase Kit (Promega). […] Compound 2, DL7076, was selected for further evaluation based on its effects in activating hCAR and Nrf2 using the HepG2 cell reporter assay (FIGS. 37a-37c).

Another series relates to BT549 cells. Nature of the series: HPH/BT549 co-culture, CPA cytotoxicity (CCK8). The settings on record: HPH/BT549 coculture, CPA 250, 500, 1000 μM, 48 hours. Type of series: cell-based. On the procedure: HPH were cultured in collagen-coated 24 well plates and pre-treated with vehicle control (0.1% DMSO), CITCO (1 μM) or DL7076 (5 μM or 10 μM) for 24 h. […] Following the 24 h pre-treatment, coverslips were combined in hepatocyte seeded wells and exposed to designated concentrations of cyclophosphamide in the presence or absence of DL7076 for various time intervals, as indicated.
H9c2 cells were seeded 0.8×10^5 in 24-well plates. Following cell attachment, a 2 h pre-treatment with vehicle control (0.1% DMSO), SFN (2.5 μM) or DL7076 (1 μM, 5 μM, or 10 μM) was done followed by doxorubicin (2.5 μM) exposure for 22 h. Co-culture cells were assembled and treated with cyclophosphamide and doxorubicin as indicated. A Cell Counting Kit-8 (Enzo) assay was carried out. Cell viability was described as a percent of vehicle control (0.1% DMSO). Cardiomyocyte, human iPSC-derived cardiomyocytes, and BT549 viability was determined with a 1 hr incubation of 6% CCK8 in WEM.

Another series deals with cleaved caspase-3. Nature of the series: Cleaved caspase-3 Western blot in H9c2 cardiomyocytes. Type of series: cell-based, rat. The following applies: H9c2, DOX 2.5 μM. An excerpt:
Protein was harvested using cell lysis buffer (Cell Signaling Technology, Danvers, Mass.) with a complete protease inhibitor cocktail (Roche, Mannheim, Germany) prior to homogenizing via sonification. Homogenized protein from treated HPH, H9c2, BT549, and MDA-MB-231 cells were resolved on NuPage Novex Bis-Tris 4-12% gels (Life Technologies) or NuPage Novex Bis-Tris 12% gel and transferred through electrophoresis onto immobilon-P polyvinylidene difluoride (PVDF) membranes. Membranes were blocked with 5% BSA or 5% milk in Tris-Buffer saline with Tween 20 (TBST). Further, membranes were incubated with specific antibodies against human CYP2B6 (1:1000, Abcam), CYP3A4 (1:1000, Millipore Sigma), HO-1 (1:1000, Abcam), cleaved caspase-3 (1:1000 Cell Signaling Technologies), Nrf2 (1:1000, Abcam), TATA-Binding Protein (1:500, Santa Cruz) β-actin (1:3000, Millipore Sigma) at 4° C. overnight. Following overnight incubation, horseradish peroxidase goat anti-mouse or anti-rabbit IgG antibodies were used for secondary incubation. Membranes were developed using SuperSignal West Pico Chemiluminescent Substrate (Thermo Scientific) or Radiance Q (Azure). Two TNBC cell lines, cardiomyocytes, and HPH protein samples were isolated and resolved on a 4-12% or 12% SDS PAGE gel followed by electrophoretic transfer to a PVDF membrane. Membranes were probed 1:1000 for CYP2B6, CYP3A4, Nrf2, cleaved caspase 3, and HO-1 using β-actin (1:3000) or TBP (1:500) as a loading control.

Another series relates to H9c2 cells. Description: Oxidative stress imaging (DFDA) in H9c2 cells. The format is cell-based, rat. The following applies: H9c2, DOX 1, 2.5, 5 μM, 6 hours. The procedure: H9c2 rat cardiomyocytes seeded at 0.8×10^5 in 24-well plates. […] Cells were washed 3× with PBS. Subsequently, 0.5 mL of WEM containing 20 μM 2'-7'-dichlorofluorescein diacetate (DFDA) was added to each well. The cells were incubated at 37° C. and 5% CO2 for 30 min. The oxidation of DFDA to the fluorescent dichlorofluorescein was viewed using fluorescence microscopy (Nikon Eclipse Ti) with a FITC filter at […] and quantified using Brightspot detection for fluorescent detection of triplicate images and normalized to the vehicle control (0.1% DMSO). Cells on coverslips from co-culture experiments were fixed using 4% paraformaldehyde and permealized using Triton-X 100. A primary antibody for mouse anti-phospho-H2AX ([…]) was incubated overnight. Goat anti-mouse IgG Fluor Alexa 488 (1:200) was incubated for 2 hrs. Phosphorylation was calculated through fluorescence intensity all normalized to the vehicle control.

Molecules are shown by their SMILES.

In the series with hCAR or Nrf2, `O=C(N[C@@H]1CCCC[C@H]1N=C=S)c1c(-c2ccc3ccccc3c2)nc2occn12` (stereo in doubt) [DL7096, N-((1R,2R)-2-Isothiocyanatocyclohexyl)-6-(naphthalen-2-yl)imidazo[2,1-b]oxazole-5-carboxamide] displayed an EC50 of 330 nM and an Emax of 1.1.

As to `O=P1(N(CCCl)CCCl)NCCCO1` (stereo not shown) [CPA, cyclophosphamide], the “BT549 viability, CPA alone” value in the series with BT549 cells is reported as “decreased the viability of the BT549 cells in a concentration-dependent manner”.

In the series with hCAR or Nrf2, `O=C(NCCCCN=C=S)c1c(-c2ccc3ccccc3c2)nc2occn12` [DL7101, N-(4-Isothiocyanatobutyl)-6-(naphthalen-2-yl)imidazo[2,1-b]oxazole-5-carboxamide] came in with a concentration for a half-maximal effect (EC50) of 420 nM and an Emax of 1.6.

On to `O=C(NCCN=C=S)c1c(-c2ccc3ccccc3c2)nc2occn12` [DL7009, N-(2-Isothiocyanatoethyl)-6-(naphthalen-2-yl)imidazo[2,1-b]oxazole-5-carboxamide], for which, in the series on hCAR or Nrf2, the concentration giving a half-maximal response (EC50) is 930 nM and the Emax was 1.4.

Take `O=C(NCC(N=C=S)c1ccccc1)c1c(-c2ccc3ccccc3c2)nc2occn12` (stereo not drawn) [DL7055-2, N-(2-Isothiocyanato-2-phenylethyl)-6-(naphthalen-2-yl)imidazo[2,1-b]oxazole-5-carboxamide]: in the series with hCAR or Nrf2, the EC50 was determined as 19000 ± 80 nM and the Emax came to 6.2.

In the series on hCAR or Nrf2, `CC(CN=C=S)NC(=O)c1c(-c2ccc3ccccc3c2)nc2occn12` (stereo not drawn) [DL7091, N-(1-Isothiocyanatopropan-2-yl)-6-(naphthalen-2-yl)imidazo[2,1-b]oxazole-5-carboxamide] came in with an EC50 of 4100 nM and an Emax of 3.6.

In the series with hCAR or Nrf2, `O=C(NCCCN=C=S)c1c(-c2ccc3ccccc3c2)nc2occn12` [DL7087, N-(3-Isothiocyanatopropyl)-6-(naphthalen-2-yl)imidazo[2,1-b]oxazole-5-carboxamide] returned a 50% effective concentration (EC50) of 1100 ± 430 nM and an Emax of 1.27.

Regarding `CC(CNC(=O)c1c(-c2ccc3ccccc3c2)nc2occn12)N=C=S` (stereo not drawn) [DL7092, N-(2-Isothiocyanatopropyl)-6-(naphthalen-2-yl)imidazo[2,1-b]oxazole-5-carboxamide], in the series with hCAR or Nrf2, the EC50 was determined as 32000 nM and the Emax is 6.0.

For the compound `O=C(c1c(-c2ccc3ccccc3c2)nc2occn12)N1CCC(N=C=S)CC1` [DL7077, (4-Isothiocyanatopiperidin-1-yl)(6-(naphthalen-2-yl)imidazo[2,1-b]oxazol-5-yl)methanone], in the series on hCAR or Nrf2, the EC50 came to 4800 ± 210 nM and the Emax was found to be 1.8.

`COc1cccc2c1C(=O)c1c(O)c3c(c(O)c1C2=O)C[C@@](O)(C(=O)CO)C[C@@H]3O[C@H]1C[C@H](N)[C@H](O)[C@H](C)O1` [DOX, doxorubicin]: in the series on cleaved caspase-3, the “cleaved caspase-3 expression, DOX alone” value was “abundance in the expression of cleaved caspase-3”. In the series on H9c2 cells, the “ROS (fluorescence intensity), DOX alone” value was “concentration dependently increases ROS”.
